The compounds below were run against T1, PIK3CA (Homo sapiens, UniProt P42336) (assay: In vitro ELISA target engagement assay for PIK3CA in Jurkat cellular lysate (competition with PIK3CA Biotin Probe)). Conditions: 1 hour at rt, then 500 nM PIK3CA Biotin Probe, read-out: Elisa Target Engagement Assay (TE50).
T1 construct: endogenous in cells; host or cells: Jurkat cell lysate
Format: binding
Procedure: Example 3. In Vitro ELISA Target Engagement Assay for […] Engagement of compounds on PIK3CA were assessed in Jurkat cellular lysate via a sandwich ELISA. A solution of PIK3CA Biotin Probe was generated at 10 mM and used in the biological testing. […] Treatment Protocol: Jurkat cellular lysate was generated from frozen cell pellets. Cells were thawed on ice and resuspended in cold Dulbecco's phosphate buffered saline (DPBS) (12 mL/300 e^6 cells) then lysed by probe sonication (12×3 second pulses). Jurkat lysate was plated (50 μl/well) in Armadillo 96 well PCR plates (Thermo Fisher catalog number AB2396). The lysate was treated with serial dilutions of test compounds up to 200 μM and incubated for 1 hour at rt. Following compound incubation, PIK3CA Biotin Probe was added to a final concentration of 500 nM, and lysate was mixed by pipetting gently and incubated for an additional 1 hour at rt. The mixture was then diluted in 75 μL Dilution buffer. The mixture was centrifuged for 5 minutes at 4122 g and stored at −80° C. until ELISA TE detection. ELISA TE Detection: Quantification of PIK3CA TE was initiated by coating of the ELISA plate (Thermo Scientific White 384-Well Immuno plates; Thermo Fisher catalog number 460372). The capture antibody was diluted in plating buffer (1:83) and added to the ELISA plate, 20 μl/well, overnight at 4° C. The plate was then washed twice with PBST, 100 μl/well, and blocked with addition of blocking buffer (100 μl/well, 1 hour at rt). During block, treated and probe labeled lysate was thawed. After Block, the block buffer was removed and the thawed lysate was added to the ELISA plate, 30 μl/well, for 1.5 hours at rt. Following lysate incubation, the assay plate was washed 3 times with PBST, 100 μl/well. The Neutravidin-HRP was then diluted (1:500 in dilution buffer) and added for 1 hour at rt, 20 μl/well. Following incubation, the assay plate was washed 4 times with PBST, 100 μl/well, HRP substrate was added to plate, 20 μl/well and luminescence signal was read (Clariostar Plate Reader). For each compound the potency of target engagement (TE50) was determined using Graphpad Prism.

T1 sequence (P42336 whole entry): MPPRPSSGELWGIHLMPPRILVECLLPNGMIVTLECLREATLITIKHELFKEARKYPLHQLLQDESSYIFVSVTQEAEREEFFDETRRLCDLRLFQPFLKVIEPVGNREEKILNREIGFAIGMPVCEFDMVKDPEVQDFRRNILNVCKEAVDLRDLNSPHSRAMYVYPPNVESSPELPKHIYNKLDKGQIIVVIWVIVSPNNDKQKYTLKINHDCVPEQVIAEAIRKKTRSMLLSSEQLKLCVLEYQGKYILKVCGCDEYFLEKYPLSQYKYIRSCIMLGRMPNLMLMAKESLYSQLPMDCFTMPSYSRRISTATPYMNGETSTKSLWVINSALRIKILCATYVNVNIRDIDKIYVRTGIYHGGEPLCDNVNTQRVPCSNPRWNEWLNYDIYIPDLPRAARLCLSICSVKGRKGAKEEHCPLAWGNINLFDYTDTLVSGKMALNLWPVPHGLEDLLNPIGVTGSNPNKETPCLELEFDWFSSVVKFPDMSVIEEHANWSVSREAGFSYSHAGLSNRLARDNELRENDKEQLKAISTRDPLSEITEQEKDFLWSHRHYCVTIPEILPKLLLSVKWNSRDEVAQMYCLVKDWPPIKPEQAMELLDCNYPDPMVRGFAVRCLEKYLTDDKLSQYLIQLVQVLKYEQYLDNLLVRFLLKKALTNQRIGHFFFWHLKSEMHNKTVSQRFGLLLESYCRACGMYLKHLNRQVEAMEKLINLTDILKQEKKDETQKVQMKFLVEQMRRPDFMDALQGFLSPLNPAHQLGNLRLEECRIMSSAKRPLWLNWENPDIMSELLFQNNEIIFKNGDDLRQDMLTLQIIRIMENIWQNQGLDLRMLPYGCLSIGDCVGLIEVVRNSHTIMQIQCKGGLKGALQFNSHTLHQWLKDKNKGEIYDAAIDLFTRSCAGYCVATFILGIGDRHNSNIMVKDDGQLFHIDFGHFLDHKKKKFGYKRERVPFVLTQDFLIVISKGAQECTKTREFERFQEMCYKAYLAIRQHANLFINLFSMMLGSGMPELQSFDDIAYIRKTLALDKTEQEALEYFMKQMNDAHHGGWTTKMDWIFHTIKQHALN
T1 sequence (P27986 whole entry partner): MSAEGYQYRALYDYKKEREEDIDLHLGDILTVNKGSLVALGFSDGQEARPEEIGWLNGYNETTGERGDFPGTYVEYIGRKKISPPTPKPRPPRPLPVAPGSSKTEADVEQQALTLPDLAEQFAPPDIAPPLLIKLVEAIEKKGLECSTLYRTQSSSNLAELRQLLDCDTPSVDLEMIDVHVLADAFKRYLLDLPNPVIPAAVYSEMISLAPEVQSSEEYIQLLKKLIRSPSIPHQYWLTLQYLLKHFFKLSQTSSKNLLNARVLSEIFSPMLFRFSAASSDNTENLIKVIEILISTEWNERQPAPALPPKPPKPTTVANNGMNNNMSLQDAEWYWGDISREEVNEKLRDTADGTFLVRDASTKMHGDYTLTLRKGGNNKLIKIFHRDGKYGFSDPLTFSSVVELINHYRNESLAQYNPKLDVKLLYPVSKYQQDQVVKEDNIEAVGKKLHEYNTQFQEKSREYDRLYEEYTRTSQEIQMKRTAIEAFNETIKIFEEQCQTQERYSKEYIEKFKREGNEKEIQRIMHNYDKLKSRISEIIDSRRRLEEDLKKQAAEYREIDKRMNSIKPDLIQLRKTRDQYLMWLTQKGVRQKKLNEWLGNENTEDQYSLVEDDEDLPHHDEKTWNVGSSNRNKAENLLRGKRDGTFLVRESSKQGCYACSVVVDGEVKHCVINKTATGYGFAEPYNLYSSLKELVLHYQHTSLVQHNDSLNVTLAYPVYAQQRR

Question: How did the IC50 turn out when C[C@H](/C=C\S(C)(=O)=O)NC(=O)C1(F)CCN(C(=O)[C@H]2COC(C)(C)C[C@@H]2c2ccccc2Cl)CC1 (racemic) [Compound 256, 1-((3*R,4*S)-4-(2-chlorophenyl)-6,6-dimethyltetrahydro-2H-pyran-3-carbonyl)-4-fluoro-N-((R,Z)-4-(methylsulfonyl)but-3-en-2-yl)piperidine-4-carboxamide] was run?
Answer: 780 nM

Question: Which IC50 does the source give for CC[C@@H](/C=C/S(=O)(=O)C1CNC1)NC(=O)C1(F)CCN(S(=O)(=O)c2ccc(Br)cc2-c2ccccc2Cl)CC1 [Compound 78, (S,E)-N-(1-(azetidin-3-ylsulfonyl)pent-1-en-3-yl)-1-((5-bromo-2′-chloro-[1,1′-biphenyl]-2-yl)sulfonyl)-4-fluoropiperidine-4-carboxamide] here?
Answer: 461 nM

Question: With O=C(N[C@H]1C=CS(=O)(=O)C1)C1(F)CCN(S(=O)(=O)c2ccc(Br)cc2-c2ccccc2Cl)CC1 [Compound 67, (S)-1-((5-bromo-2′-chloro-[1,1′-biphenyl]-2-yl)sulfonyl)-N-(1,1-dioxido-2,3-dihydrothiophen-3-yl)-4-fluoropiperidine-4-carboxamide] as the compound, how does the IC50 read?
Answer: 95.6 nM

Question: How did the IC50 turn out when C[C@@H](/C=C\S(C)(=O)=O)NC(=O)C1(F)CCN(S(=O)(=O)c2ccc(C(F)(F)F)cc2-c2ccccc2Cl)CC1 [Compound 18, (S,Z)-1-((2′-chloro-5-(trifluoromethyl)-[1,1′-biphenyl]-2-yl)sulfonyl)-4-fluoro-N-(4-(methylsulfonyl)but-3-en-2-yl)piperidine-4-carboxamide] was run?
Answer: 38 nM

Question: How did the IC50 turn out when C[C@H](/C=C\S(C)(=O)=O)NC(=O)C1(F)CCN(S(=O)(=O)c2ccc(Br)cc2-c2ccc(F)cc2Cl)CC1 [Compound 50, (R,Z)-1-((5-bromo-2′-chloro-4′-fluoro-[1,1′-biphenyl]-2-yl)sulfonyl)-4-fluoro-N-(4-(methylsulfonyl)but-3-en-2-yl)piperidine-4-carboxamide] was run?
Answer: 319 nM

Question: With CCOCc1cccc(-c2cc(Cl)ccc2S(=O)(=O)N2CCC(F)(C(=O)N[C@@H](C)/C=C\S(C)(=O)=O)CC2)c1 [Compound 17, (S,Z)-1-((5-chloro-3′-(ethoxymethyl)-[1,1′-biphenyl]-2-yl)sulfonyl)-4-fluoro-N-(4-(methylsulfonyl)but-3-en-2-yl)piperidine-4-carboxamide] as the compound, how does the IC50 read?
Answer: 760 nM

Question: Which IC50 does the source give for COc1ccc(S(=O)(=O)N2CC[C@](F)(C(=O)N[C@H](C)/C=C\S(C)(=O)=O)CC2(C)C)c(-c2ccccc2Cl)c1 (single isomer, unassigned) [Compound 150, (*R)-1-((2′-chloro-5-methoxy-[1,1′-biphenyl]-2-yl)sulfonyl)-4-fluoro-2,2-dimethyl-N-((R,Z)-4-(methylsulfonyl)but-3-en-2-yl)piperidine-4-carboxamide] here?
Answer: 310 nM

Question: With COCCc1cccc(-c2cc(Cl)ccc2S(=O)(=O)N2CCC(F)(C(=O)N[C@@H](C)/C=C\S(C)(=O)=O)CC2)c1 [Compound 125, (S,Z)-1-((5-chloro-3′-(2-methoxyethyl)-[1,1′-biphenyl]-2-yl)sulfonyl)-4-fluoro-N-(4-(methylsulfonyl)but-3-en-2-yl)piperidine-4-carboxamide] as the compound, how does the IC50 read?
Answer: 610 nM

Question: COc1ccc(S(=O)(=O)N2CCC[C@@](F)(C(=O)N[C@H](C)/C=C\S(C)(=O)=O)CC2)c(-c2ccccc2Cl)c1 [Compound 313, (S)-1-((2′-chloro-5-methoxy-[1,1′-biphenyl]-2-yl)sulfonyl)-4-fluoro-N-((R,Z)-4-(methylsulfonyl)but-3-en-2-yl)azepane-4-carboxamide] was tested. Which IC50 did it give?
Answer: 530 nM

Question: COc1ccc(S(=O)(=O)N2CCC(F)(C(=O)N[C@H](C)C3=CS(=O)(=O)C3)CC2)c(-c2ccccc2Cl)c1 [Compound 235, (R)-1-((2′-chloro-5-methoxy-[1,1′-biphenyl]-2-yl)sulfonyl)-N-(1-(1,1-dioxido-2H-thiet-3-yl)ethyl)-4-fluoropiperidine-4-carboxamide] was tested. Which IC50 did it give?
Answer: 370 nM

Question: How did the IC50 turn out when C[C@@H]1C[C@](F)(C(=O)NC/C=C\C(=O)N2CC(F)(F)C2)CCN1C(=O)[C@H]1COC(C)(C)C[C@@H]1c1ccccc1Cl (single isomer, unassigned) [Compound 293, (2*R,4*S)-1-((3*R,4*S)-4-(2-chlorophenyl)-6,6-dimethyltetrahydro-2H-pyran-3-carbonyl)-N-((Z)-4-(3,3-difluoroazetidin-1-yl)-4-oxobut-2-en-1-yl)-4-fluoro-2-methylpiperidine-4-carboxamide] was run?
Answer: 820 nM

Question: Which IC50 does the source give for C[C@H](/C=C\S(C)(=O)=O)NC(=O)C1(F)CCN(C(=O)[C@H]2CN(C(=O)c3ccccc3)C[C@H]2c2ccccc2Cl)CC1 [Compound 162, 1-((3R,4R)-1-benzoyl-4-(2-chlorophenyl)pyrrolidine-3-carbonyl)-4-fluoro-N-((R,Z)-4-(methylsulfonyl)but-3-en-2-yl)piperidine-4-carboxamide] here?
Answer: 770 nM

Question: How did the IC50 turn out when O=C(NC1C=CS(=O)(=O)C1)C1(F)CCN(S(=O)(=O)c2ccc(Br)cc2-c2ccccc2Cl)CC1 (racemic) [Compound 65, rac-1-((5-bromo-2′-chloro-[1,1′-biphenyl]-2-yl)sulfonyl)-N-(1,1-dioxido-2,3-dihydrothiophen-3-yl)-4-fluoropiperidine-4-carboxamide] was run?
Answer: 54 nM

Question: COc1ccc(S(=O)(=O)N2CC[C@](F)(C(=O)N[C@H](C)/C=C\S(C)(=O)=O)C[C@H]2C)c(-c2ccccc2Cl)c1 (single isomer, unassigned) [Compound 147, (2*R,4*R)-1-((2′-chloro-5-methoxy-[1,1′-biphenyl]-2-yl)sulfonyl)-4-fluoro-2-methyl-N-((R,Z)-4-(methylsulfonyl)but-3-en-2-yl)piperidine-4-carboxamide] was tested. Which IC50 did it give?
Answer: 390 nM

Question: Which IC50 does the source give for COc1ccc(S(=O)(=O)N2CC[C@@](F)(C(=O)NC/C=C\C(=O)N3CC(F)(F)C3)C[C@H]2C)c(-c2ccccc2Cl)c1 [Compound 288, (2R,4S)-1-((2′-chloro-5-methoxy-[1,1′-biphenyl]-2-yl)sulfonyl)-N-((Z)-4-(3,3-difluoroazetidin-1-yl)-4-oxobut-2-en-1-yl)-4-fluoro-2-methylpiperidine-4-carboxamide] here?
Answer: 490 nM

Question: Which IC50 does the source give for C[C@@H]1C[C@](F)(C(=O)NC/C=C\C(=O)N2CC(F)(F)C2)CCN1S(=O)(=O)c1cnc(C(F)(F)F)cc1-c1ccccc1Cl [Compound 289, (2R,4S)-1-((4-(2-chlorophenyl)-6-(trifluoromethyl)pyridin-3-yl)sulfonyl)-N-((Z)-4-(3,3-difluoroazetidin-1-yl)-4-oxobut-2-en-1-yl)-4-fluoro-2-methylpiperidine-4-carboxamide] here?
Answer: 460 nM

Question: C[C@@H]1C[C@](F)(C(=O)NC/C=C\C(=O)N2CC(F)(F)C2)CCN1S(=O)(=O)c1ccc(C#N)cc1-c1ccccc1Cl [Compound 292, (2R,4S)-1-((2′-chloro-5-cyano-[1,1′-biphenyl]-2-yl)sulfonyl)-N-((Z)-4-(3,3-difluoroazetidin-1-yl)-4-oxobut-2-en-1-yl)-4-fluoro-2-methylpiperidine-4-carboxamide] was tested. Which IC50 did it give?
Answer: 160 nM

Question: With C=C(C#N)CNC(=O)C1(F)CCN(S(=O)(=O)c2ccc(Br)cc2-c2ccccc2Cl)CC1 [Compound 72, 1-((5-bromo-2′-chloro-[1,1′-biphenyl]-2-yl)sulfonyl)-N-(2-cyanoallyl)-4-fluoropiperidine-4-carboxamide] as the compound, how does the IC50 read?
Answer: 670 nM

Question: With C[C@@H](/C=C\S(C)(=O)=O)NC(=O)C1(F)CCN(S(=O)(=O)c2cnc(C(F)(F)F)cc2-c2ccc(F)cc2Cl)CC1 [Compound 212, (S,Z)-1-((4-(2-chloro-4-fluorophenyl)-6-(trifluoromethyl)pyridin-3-yl)sulfonyl)-4-fluoro-N-(4-(methylsulfonyl)but-3-en-2-yl)piperidine-4-carboxamide] as the compound, how does the IC50 read?
Answer: 380 nM

Question: How did the IC50 turn out when C[C@H](/C=C\S(C)(=O)=O)NC(=O)C1(F)CCN(S(=O)(=O)c2cc3sccc3cc2-c2ccccc2Cl)CC1 [Compound 157, (R,Z)-1-((5-(2-chlorophenyl)benzo [b]thiophen-6-yl)sulfonyl)-4-fluoro-N-(4-(methylsulfonyl)but-3-en-2-yl)piperidine-4-carboxamide] was run?
Answer: 200 nM

Question: Which IC50 does the source give for C[C@H](/C=C\S(C)(=O)=O)NC(=O)C1(F)CCN(S(=O)(=O)c2cnc(C(F)(F)F)cc2-c2cccc(F)c2Cl)CC1 [Compound 209, (R,Z)-1-((4-(2-chloro-3-fluorophenyl)-6-(trifluoromethyl)pyridin-3-yl)sulfonyl)-4-fluoro-N-(4-(methylsulfonyl)but-3-en-2-yl)piperidine-4-carboxamide] here?
Answer: 240 nM

Question: How did the IC50 turn out when C[C@@H](/C=C/S(=O)(=O)C1CNC1)NC(=O)C1(F)CCN(S(=O)(=O)c2ccc(Br)cc2-c2ccccc2Cl)CC1 [Compound 75, (S,E)-N-(4-(azetidin-3-ylsulfonyl)but-3-en-2-yl)-1-((5-bromo-2′-chloro-[1,1′-biphenyl]-2-yl)sulfonyl)-4-fluoropiperidine-4-carboxamide] was run?
Answer: 140 nM
